We go through 27 compounds from patent publication US10335503B2, “Compound that specifically binds to AMPA receptor” (Public University Corporation Yokohama City University, priority 2015, dated 2019).

Holding throughout (settings): Positive substance, concentration not given
The test system of test [1] is Leukotriene D4. Put plainly: Receptor binding panel: Leukotriene D4.
In test [2] the target is Sigma σ2 (Homo sapiens, UniProt Q5BJF2). Put plainly: Receptor binding panel: Sigma σ2.
Test [3] deals with GABA A (BZ central). Put plainly: Receptor binding panel: GABA A (BZ central).
Test [4] has as its target Dopamine D2 short (Homo sapiens, UniProt P14416). The test can be described thus: Receptor binding panel: Dopamine D2 short.
Test [5] concerns GABA A (Agonist site). The test can be described thus: Receptor binding panel: GABA A (Agonist site).
Test [6] concerns the target T1, CRF1 (Homo sapiens, UniProt P34998).
T1 sequence (P34998 24-415): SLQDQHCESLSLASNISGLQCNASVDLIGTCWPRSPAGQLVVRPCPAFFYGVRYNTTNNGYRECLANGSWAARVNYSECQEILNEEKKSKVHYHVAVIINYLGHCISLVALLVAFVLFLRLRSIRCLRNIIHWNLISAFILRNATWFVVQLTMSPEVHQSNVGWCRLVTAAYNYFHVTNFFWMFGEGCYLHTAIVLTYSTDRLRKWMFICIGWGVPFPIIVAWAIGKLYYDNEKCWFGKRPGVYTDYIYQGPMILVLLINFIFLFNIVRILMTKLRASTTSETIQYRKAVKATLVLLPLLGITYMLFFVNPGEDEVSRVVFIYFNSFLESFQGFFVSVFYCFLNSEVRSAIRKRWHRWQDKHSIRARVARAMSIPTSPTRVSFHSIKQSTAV
The test can be described thus: Receptor binding panel: CRF1.

The target in test [7] is Serotonin 5HT2A (Homo sapiens, UniProt P28223). Put plainly: Receptor binding panel: Serotonin 5HT2A.
Test [8] deals with Serotonin transporter (Homo sapiens, UniProt P31645). Put plainly: Receptor binding panel: Serotonin transporter.
Test [9] relates to Glutamate (NMDA phencyclidine site). The test can be described thus: Receptor binding panel: Glutamate (NMDA phencyclidine site).
Test [10] addresses Neurokinin NK3 (Homo sapiens, UniProt P29371). Put plainly: Receptor binding panel: Neurokinin NK3.
Test [11] relates to Glutamate (AMPA). Put plainly: Receptor binding panel: Glutamate (AMPA).
The subject of test [12] is Nicotinic. Put plainly: Receptor binding panel: Nicotinic. The arrangement: species or system Human.
For test [13], the system named is Na channel site 2. Put plainly: Receptor binding panel: Na channel site 2.
For test [14], the system named is Leukotriene B4. Put plainly: Receptor binding panel: Leukotriene B4.
Test [15] has as its target Sigma σ1 (Homo sapiens, UniProt Q99720). The test can be described thus: Receptor binding panel: Sigma σ1.
The target in test [16] is Histamine H2 (Homo sapiens, UniProt P25021). The test can be described thus: Receptor binding panel: Histamine H2.
Test [17] has as its system K Channel KATP. The test can be described thus: Receptor binding panel: K Channel KATP.
Test [18] has as its system Glutamate (NMDA agonist site). Put plainly: Receptor binding panel: Glutamate (NMDA agonist site).
The test system of test [19] is Estrogen. Put plainly: Receptor binding panel: Estrogen.
In test [20] the target is Histamine H3 (Homo sapiens, UniProt Q9Y5N1). Put plainly: Receptor binding panel: Histamine H3.
For test [21], the system named is Glutamate (NMDA glycine site). The test can be described thus: Receptor binding panel: Glutamate (NMDA glycine site).
In test [22] the target is α2A-Adrenergic (Homo sapiens, UniProt P08913). Put plainly: Receptor binding panel: α2A-Adrenergic.
For test [23], the target named is α2C-Adrenergic (Homo sapiens, UniProt P18825). The test can be described thus: Receptor binding panel: α2C-Adrenergic.
In test [24] the target is Melatonin MT1 (Homo sapiens, UniProt P48039). Put plainly: Receptor binding panel: Melatonin MT1.
The target in test [25] is Serotonin 5HT3 (Homo sapiens, UniProt P46098). Put plainly: Receptor binding panel: Serotonin 5HT3.
Test [26] concerns the target Opiate δ (Homo sapiens, UniProt P41143). Put plainly: Receptor binding panel: Opiate δ.
Test [27] relates to Glutamate (Kainate). Put plainly: Receptor binding panel: Glutamate (Kainate).
For test [28], the target named is Neurokinin NK1 (Homo sapiens, UniProt P25103). Put plainly: Receptor binding panel: Neurokinin NK1.

*1 amine or outer side, *2 acyl side, *3 side chain or, on linkers, in order; H or OH if unused. Where a SMILES comes first, the peptide text is derived from it. Where no end group is shown, it is not given here. [ ]: non-standard residue; d: D form. NMeF = CN[C@@H](Cc1ccccc1)C(=O)O; Suc = O=C(CCC(=O)[*:2])[*:1]

Sequence of Serotonin transporter (P31645 whole entry): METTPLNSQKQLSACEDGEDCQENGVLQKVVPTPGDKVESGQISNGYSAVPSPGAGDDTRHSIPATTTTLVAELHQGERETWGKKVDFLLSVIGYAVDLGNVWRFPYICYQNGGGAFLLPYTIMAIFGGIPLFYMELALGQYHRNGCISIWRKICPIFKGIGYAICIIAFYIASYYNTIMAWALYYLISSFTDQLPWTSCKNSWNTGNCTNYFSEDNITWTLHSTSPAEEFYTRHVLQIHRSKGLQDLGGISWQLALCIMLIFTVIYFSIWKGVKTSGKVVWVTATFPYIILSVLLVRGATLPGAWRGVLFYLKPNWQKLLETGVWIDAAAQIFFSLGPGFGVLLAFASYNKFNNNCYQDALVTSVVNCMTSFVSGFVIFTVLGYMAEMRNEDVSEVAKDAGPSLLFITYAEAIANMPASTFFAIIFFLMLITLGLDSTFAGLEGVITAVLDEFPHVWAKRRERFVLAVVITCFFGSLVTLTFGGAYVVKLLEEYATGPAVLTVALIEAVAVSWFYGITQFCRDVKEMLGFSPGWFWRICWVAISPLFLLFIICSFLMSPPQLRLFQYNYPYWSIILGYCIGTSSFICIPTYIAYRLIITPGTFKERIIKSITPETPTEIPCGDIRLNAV
Sequence of Sigma σ1 (Q99720 whole entry): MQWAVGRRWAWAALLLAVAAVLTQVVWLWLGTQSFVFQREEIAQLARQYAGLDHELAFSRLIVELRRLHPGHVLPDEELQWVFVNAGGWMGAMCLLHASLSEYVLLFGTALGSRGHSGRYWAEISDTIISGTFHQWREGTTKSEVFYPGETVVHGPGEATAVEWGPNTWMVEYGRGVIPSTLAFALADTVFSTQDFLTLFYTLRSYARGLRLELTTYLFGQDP
Sequence of α2A-Adrenergic (P08913 whole entry): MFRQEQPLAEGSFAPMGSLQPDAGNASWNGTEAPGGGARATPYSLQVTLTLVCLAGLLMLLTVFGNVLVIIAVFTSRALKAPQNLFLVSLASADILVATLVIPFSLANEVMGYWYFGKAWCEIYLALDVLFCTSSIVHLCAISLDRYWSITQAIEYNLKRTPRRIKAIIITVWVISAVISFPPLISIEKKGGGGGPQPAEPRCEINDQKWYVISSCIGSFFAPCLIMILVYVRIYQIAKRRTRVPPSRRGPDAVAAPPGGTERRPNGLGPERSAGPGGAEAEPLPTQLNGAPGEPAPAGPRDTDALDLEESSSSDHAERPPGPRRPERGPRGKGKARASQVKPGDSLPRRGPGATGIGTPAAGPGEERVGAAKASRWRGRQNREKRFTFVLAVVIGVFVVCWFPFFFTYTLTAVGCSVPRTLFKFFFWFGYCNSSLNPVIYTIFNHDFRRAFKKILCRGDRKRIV
Sequence of Neurokinin NK3 (P29371 whole entry): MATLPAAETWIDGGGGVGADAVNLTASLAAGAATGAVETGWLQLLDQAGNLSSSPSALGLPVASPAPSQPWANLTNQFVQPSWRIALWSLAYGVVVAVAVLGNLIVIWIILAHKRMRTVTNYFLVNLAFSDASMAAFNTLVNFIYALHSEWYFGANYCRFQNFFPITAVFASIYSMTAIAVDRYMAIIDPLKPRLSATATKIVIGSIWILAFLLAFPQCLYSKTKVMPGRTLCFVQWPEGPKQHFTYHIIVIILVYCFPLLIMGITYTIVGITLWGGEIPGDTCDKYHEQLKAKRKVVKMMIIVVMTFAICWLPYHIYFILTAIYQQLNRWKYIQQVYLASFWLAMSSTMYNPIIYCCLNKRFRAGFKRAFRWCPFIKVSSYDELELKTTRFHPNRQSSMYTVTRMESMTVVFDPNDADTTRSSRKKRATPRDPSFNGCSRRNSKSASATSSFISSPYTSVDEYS
Sequence of Histamine H3 (Q9Y5N1 whole entry): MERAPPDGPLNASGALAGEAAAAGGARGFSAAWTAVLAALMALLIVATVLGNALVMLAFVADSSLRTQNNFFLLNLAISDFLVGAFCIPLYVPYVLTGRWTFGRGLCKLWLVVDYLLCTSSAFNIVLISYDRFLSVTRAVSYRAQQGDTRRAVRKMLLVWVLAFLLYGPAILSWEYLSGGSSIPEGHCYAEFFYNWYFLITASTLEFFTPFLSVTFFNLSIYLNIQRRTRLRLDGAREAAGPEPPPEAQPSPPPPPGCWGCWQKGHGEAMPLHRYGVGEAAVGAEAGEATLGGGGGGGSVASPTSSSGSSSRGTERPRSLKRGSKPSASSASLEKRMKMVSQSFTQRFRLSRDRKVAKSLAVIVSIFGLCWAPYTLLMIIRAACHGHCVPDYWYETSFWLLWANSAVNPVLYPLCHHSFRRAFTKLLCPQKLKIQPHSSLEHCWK
Sequence of Dopamine D2 short (P14416 1-414 isoform P14416-2): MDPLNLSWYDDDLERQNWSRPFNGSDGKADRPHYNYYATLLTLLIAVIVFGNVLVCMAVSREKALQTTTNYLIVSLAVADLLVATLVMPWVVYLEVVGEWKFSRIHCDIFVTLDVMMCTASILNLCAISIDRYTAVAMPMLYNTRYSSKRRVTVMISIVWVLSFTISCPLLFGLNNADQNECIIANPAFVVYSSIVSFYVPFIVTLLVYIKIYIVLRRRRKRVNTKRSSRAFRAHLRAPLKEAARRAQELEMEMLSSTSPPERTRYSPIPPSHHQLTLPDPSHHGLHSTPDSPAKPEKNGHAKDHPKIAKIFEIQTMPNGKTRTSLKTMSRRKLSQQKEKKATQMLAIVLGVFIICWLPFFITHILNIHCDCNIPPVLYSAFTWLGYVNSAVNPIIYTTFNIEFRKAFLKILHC
Sequence of Serotonin 5HT3 (P46098 24-478): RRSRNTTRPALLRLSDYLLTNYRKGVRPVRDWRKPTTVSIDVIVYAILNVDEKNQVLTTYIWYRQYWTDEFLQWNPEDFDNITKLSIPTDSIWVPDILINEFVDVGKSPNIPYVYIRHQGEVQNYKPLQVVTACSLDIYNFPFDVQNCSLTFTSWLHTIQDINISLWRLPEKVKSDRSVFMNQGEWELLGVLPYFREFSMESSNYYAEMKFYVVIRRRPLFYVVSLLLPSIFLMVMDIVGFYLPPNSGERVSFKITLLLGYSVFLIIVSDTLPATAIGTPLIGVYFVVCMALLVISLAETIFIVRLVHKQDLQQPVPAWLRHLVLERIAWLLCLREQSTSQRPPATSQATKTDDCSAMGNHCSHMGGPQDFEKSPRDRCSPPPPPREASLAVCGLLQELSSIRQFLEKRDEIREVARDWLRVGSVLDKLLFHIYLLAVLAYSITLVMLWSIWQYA
Sequence of α2C-Adrenergic (P18825 whole entry): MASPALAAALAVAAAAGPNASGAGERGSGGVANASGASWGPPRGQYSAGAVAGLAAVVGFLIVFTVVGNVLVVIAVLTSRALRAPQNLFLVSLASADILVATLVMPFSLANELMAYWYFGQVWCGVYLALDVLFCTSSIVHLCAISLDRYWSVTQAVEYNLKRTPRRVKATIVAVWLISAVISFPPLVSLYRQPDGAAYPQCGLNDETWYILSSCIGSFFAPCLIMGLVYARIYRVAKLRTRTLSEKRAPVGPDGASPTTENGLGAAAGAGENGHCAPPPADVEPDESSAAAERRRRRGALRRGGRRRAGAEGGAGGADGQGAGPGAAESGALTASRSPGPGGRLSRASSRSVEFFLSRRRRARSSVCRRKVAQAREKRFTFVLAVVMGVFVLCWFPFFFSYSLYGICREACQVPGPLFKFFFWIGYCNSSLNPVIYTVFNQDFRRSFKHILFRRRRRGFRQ
Sequence of Histamine H2 (P25021 whole entry): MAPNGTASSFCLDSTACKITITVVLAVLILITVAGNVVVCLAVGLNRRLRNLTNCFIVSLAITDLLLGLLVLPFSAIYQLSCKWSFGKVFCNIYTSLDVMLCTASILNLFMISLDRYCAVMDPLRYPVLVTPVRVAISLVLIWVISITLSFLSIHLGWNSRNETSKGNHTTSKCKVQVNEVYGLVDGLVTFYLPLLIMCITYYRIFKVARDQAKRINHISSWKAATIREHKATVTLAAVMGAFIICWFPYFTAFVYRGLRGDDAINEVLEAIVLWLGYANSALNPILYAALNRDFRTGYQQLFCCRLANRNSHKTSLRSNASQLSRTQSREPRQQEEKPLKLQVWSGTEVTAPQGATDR
Sequence of Opiate δ (P41143 whole entry): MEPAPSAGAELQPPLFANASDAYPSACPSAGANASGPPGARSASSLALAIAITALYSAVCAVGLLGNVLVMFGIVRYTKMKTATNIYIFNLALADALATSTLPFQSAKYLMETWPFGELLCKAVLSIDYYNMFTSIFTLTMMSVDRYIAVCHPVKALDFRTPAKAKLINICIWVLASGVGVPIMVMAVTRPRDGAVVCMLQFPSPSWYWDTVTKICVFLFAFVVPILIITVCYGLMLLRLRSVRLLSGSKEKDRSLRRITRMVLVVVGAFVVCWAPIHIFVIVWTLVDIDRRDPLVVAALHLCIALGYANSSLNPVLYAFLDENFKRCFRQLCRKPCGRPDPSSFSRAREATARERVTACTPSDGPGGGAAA
Sequence of Melatonin MT1 (P48039 whole entry): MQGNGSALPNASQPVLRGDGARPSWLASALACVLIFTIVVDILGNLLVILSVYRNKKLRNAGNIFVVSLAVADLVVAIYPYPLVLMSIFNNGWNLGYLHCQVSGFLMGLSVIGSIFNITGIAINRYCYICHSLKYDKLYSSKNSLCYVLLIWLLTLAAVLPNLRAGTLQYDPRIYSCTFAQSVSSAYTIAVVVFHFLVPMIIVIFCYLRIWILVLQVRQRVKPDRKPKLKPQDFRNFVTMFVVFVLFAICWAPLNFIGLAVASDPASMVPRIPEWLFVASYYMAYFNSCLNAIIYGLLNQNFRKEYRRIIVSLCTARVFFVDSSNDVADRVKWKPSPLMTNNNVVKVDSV
Sequence of Sigma σ2 (Q5BJF2 whole entry): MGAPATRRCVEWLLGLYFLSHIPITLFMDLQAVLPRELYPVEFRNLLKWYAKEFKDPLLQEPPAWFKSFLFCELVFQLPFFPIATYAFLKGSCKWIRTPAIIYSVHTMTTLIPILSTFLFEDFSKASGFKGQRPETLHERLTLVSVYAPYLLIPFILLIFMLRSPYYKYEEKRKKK

Regarding `CCCCC/C=C\C\C=C/C=C/C=C/[C@@H](SC[C@H](N)C(=O)NCC(=O)O)[C@@H](O)CCCC(=O)O` [Leukotriene D4, reference compound], the “Inhibition (%)” value in test [1] is 100.00%.

As to `O=C(CCCN1CCC(O)(c2ccc(Cl)cc2)CC1)c1ccc(F)cc1` [Haloperidol, reference compound], the “Inhibition (%)” value in test [2] came out at 100.00%.

As to `CN1C(=O)CN=C(c2ccccc2)c2cc(Cl)ccc21` [Diazepam, reference compound], in test [3], the “Inhibition (%)” value is listed as 100.00%.

In the case of (+)-Butaclamol [reference compound], the “Inhibition (%)” value in test [4] worked out at 100.00%.

Take `NCc1cc(=O)[nH]o1` [Muscimol, reference compound]: the “Inhibition (%)” value in test [5] is 97.63%.

For “Urocortin human (DNPSLSIDLTFHLLRTLLELARTQSQRERAEQNRIIFDSV; ends and bridges not checked; UniProt P55089 83-122, looked up) [reference compound]”, the “Inhibition (%)” value in test [6] is given as 100.00%.

Consider `O=C(c1ccc(F)cc1)C1CCN(CCn2c(=O)[nH]c3ccccc3c2=O)CC1` [Ketanserin, reference compound], for which the “Inhibition (%)” value in test [7] is 99.20%.

Take `CN(C)CCCN1c2ccccc2CCc2ccccc21` [Imipramine, reference compound]: in test [8], the “Inhibition (%)” value is reported as 100.00%.

As to (+)-MK-801 [reference compound], in [9], the “Inhibition (%)” value is on record as 100.00%.

Consider `CSCC[C@H](NC(=O)[C@H](CC(C)C)NC(=O)CNC(=O)[C@H](Cc1ccccc1)N(C)C(=O)[C@H](Cc1ccccc1)NC(=O)[C@H](CC(=O)O)NC(=O)CCC(=O)O)C(N)=O` [Senktide, reference compound] (Suc-DF[NMeF]GLM-NH2), for which the “Inhibition (%)” value in test [10] was 98.43%.

`Cc1onc(O)c1C[C@H](N)C(=O)O` [(S)-AMPA, reference compound]: the “Inhibition (%)” value in [11] turned out to be 100.00%.

In the case of `Clc1ccc(C2CC3CCC2N3)cn1` (racemic) [(±)-Epibatidine, reference compound], the “Inhibition (%)” value in test [12] was determined as 98.46%.

For `CCCCOc1cc(C(=O)NCCN(CC)CC)c2ccccc2n1` [Dibucaine, reference compound], the “Inhibition (%)” value in test [13] stood at 97.37%.

`CCCCC/C=C\C[C@@H](O)/C=C/C=C/C=C\[C@@H](O)CCCC(=O)O` [Leukotriene B4, reference compound]: in [14], the “Inhibition (%)” value is listed as 98.89%.

As for `CC(C)=CCN1CCC2(C)c3cc(O)ccc3CC1C2C` (single isomer, unassigned; (+)) [(+)-Pentazocine, reference compound], the “Inhibition (%)” value in test [15] was determined as 100.00%.

As for `CN/C(=N/CCSCc1nc[nH]c1C)NC#N` [Cimetidine, reference compound], in test [16], the “Inhibition (%)” value amounted to 100.00%.

Turning to `COc1ccc(Cl)cc1C(=O)NCCc1ccc(S(=O)(=O)NC(=O)NC2CCCCC2)cc1` [Glybenclamide, reference compound], the “Inhibition (%)” value in test [17] is recorded as 100.00%.

On to `N[C@@H](CCC(=O)O)C(=O)O` [L-Glutamic acid, reference compound], for which the “Inhibition (%)” value in [18] is recorded as 100.00%.

With `C[C@]12CC[C@@H]3c4ccc(O)cc4CC[C@H]3[C@@H]1CC[C@@H]2O` [β-Estradiol, reference compound], the “Inhibition (%)” value in test [19] worked out at 100.00%.

On to `C[C@@H](N)Cc1c[nH]cn1` [(R)(−)-α-Methyl histamine, reference compound], for which, in test [20], the “Inhibition (%)” value is given as 98.17%.

As to `O=C(O)/C(=C/c1c(C(=O)O)[nH]c2cc(Cl)cc(Cl)c12)c1ccccc1` [MDL105,519, reference compound], in [21], the “Inhibition (%)” value came out at 100.00%.

As for `COC(=O)[C@H]1[C@H]2C[C@H]3c4[nH]c5ccccc5c4CCN3C[C@H]2CC[C@@H]1O` [Rauwolscine, reference compound], the “Inhibition (%)” value in [22] and in test [23] was 100.00% each time.

Take `COc1ccc2[nH]cc(CCNC(C)=O)c2c1` [Melatonin, reference compound]: in test [24], the “Inhibition (%)” value amounted to 100.00%.

As to `CN1[C@@H]2CC[C@H]1C[C@@H](OC(=O)c1c[nH]c3ccccc13)C2` [Tropisetron, reference compound], the “Inhibition (%)” value in test [25] was 99.80%.

Take `Oc1ccc2c3c1O[C@H]1c4oc5ccccc5c4C[C@@]4(O)[C@@H](C2)N(CC2CC2)CC[C@]314` [Naltriben, reference compound]: in test [26], the “Inhibition (%)” value was determined as 98.32%.

Consider `C=C(C)[C@H]1CN[C@H](C(=O)O)[C@H]1CC(=O)O` [Kainic acid, reference compound], for which the “Inhibition (%)” value in [27] worked out at 100.00%.

With `Ic1ccccc1CN[C@@H]1C2CCN(CC2)[C@@H]1C(c1ccccc1)c1ccccc1` (racemic) [L-703,606, reference compound], the “Inhibition (%)” value in test [28] stood at 94.45%.
